In patent publication US20260365690A1, “COMPOUND FOR RNA CAPPING AND USE THEREOF” (GUANGZHOU HENOVCOM BIOSCIENCE CO., LTD., priority 2022, published 2026):

Key:
HEK293T cells = assay: Expression efficiency of capped luciferase mRNAs in HEK293T cells; type: cell-based; conditions: 6 h after transfection of capped luciferase mRNA into HEK293T cells; ratio to N-7413 (= 1)
Experimental: 2. Evaluation of Expression Efficiency of Different Capped Luciferase mRNAs in HEK293T Cells
1) HNE293T cells were cultured in DMEM medium containing 10% FBS and penicillin/streptomycin at 37 °C and 5% CO2.
2) The cultured HEK293T cells were spread in a 96-well plate with 1.25×10^4 cells per well.
3) After the cells completely adhered to the wall, 0.5 μg of a mixture of mRNA sample and Polyplus jetMESSENGER was added to each well of cells, and cultured at 37 °C and 5% CO2 for 6 hours.
4) The growth medium was removed from the cells to be tested and the cells were rinsed with PBS. After centrifugation to remove PBS, 50 μL of 1× lysis buffer was added thereto, and cells and all liquid were transferred to a microcentrifuge tube, and then centrifuged at 12000×g and 4 °C for 2 min.
5) The supernatant was transferred to a new tube. Fluorescence readings were detected using the ONE-Glo Luciferase Assay System Kit.
3. All compounds, N-7413, negative control and blank control were tested under the same conditions, and some experimental results in the test results are shown in Table 5.
The relative fluorescence reading results (6 h) after transfection of capped mRNA into 293T cells are now provided, as shown in Table 5. It can be seen from the FIGURE that the mRNA capped by the compound of the present disclosure has a high expression level, and some cap structures can enable higher expression efficiency of mRNA compared to N-7413.

mRNA = mRNA synthesis by in vitro transcription (co-transcriptional capping), final product mass; type: biochemical; conditions: obtained from 20 μL mRNA synthesis reaction system; T7 RNA Polymerase; cap analog 4 mM; 37 °C, 2 to 3 hours
Experimental: 1) The plasmids were linearized and the DNA templates were purified.
2) The mRNA was synthesized by in vitro transcription, using 11 cap structures of the present disclosure, positive control CleanCap®AG (3′OMe) (Trilink, N-7413), negative control (uncapped mRNA) and blank control (DNase/RNase-Free water), respectively.
The reaction was carried out at 37 °C for 2 to 3 hours. TURBO DNase digestion was carried out for 15 minutes. The mRNA was precipitated by LiC for 30 min or more or overnight, and the mRNA precipitate was washed with 75% ethanol, dried briefly to evaporate the ethanol, and the mRNA was redissolved with RNase-Free water.
3) The transcription product was purified, and the reaction yield was calculated to provide the test results of some compounds, as shown in Table 2.

SMILES: CO[C@@H]1[C@H](CC(=O)NC[C@H]2O[C@@H](n3cnc4c(=O)[nH]c(N)nc43)[C@H](O)[C@@H]2O)[C@@H](COP(=O)(O)OP(=O)(O)OP(=O)(O)OC[C@H]2O[C@@H](n3c[n+](C)c4c(=O)[nH]c(N)nc43)[C@H](O)[C@@H]2C)O[C@H]1n1cnc2c(N)ncnc21 [Compound 59]
- Relative fluorescence reading (HEK293T cells): 0.71
- Final product mass (mRNA): 91 µg

SMILES: CNC(=O)[C@H]1[C@@H](O)[C@H](n2c[n+](C)c3c(=O)[nH]c(N)nc32)O[C@@H]1COP(=O)(O)OP(=O)(O)OP(=O)(O)OC[C@H]1O[C@@H](n2cnc3c(N)ncnc32)[C@H](OC)[C@@H]1OP(=O)(O)OC[C@H]1O[C@@H](n2cnc3c(=O)[nH]c(N)nc32)[C@H](O)[C@@H]1O [Compound 191]
- Relative fluorescence reading (HEK293T cells): 1.68
- Final product mass (mRNA): 100 µg

SMILES: CCC[C@H]1[C@@H](O)[C@H](n2c[n+](C)c3c(=O)[nH]c(N)nc32)O[C@@H]1COP(=O)(O)OP(=O)(O)OP(=O)(O)OC[C@H]1O[C@@H](n2cnc3c(NC)ncnc32)[C@H](OC)[C@@H]1OP(=O)(O)OC[C@H]1O[C@@H](n2cnc3c(=O)[nH]c(N)nc32)[C@H](O)[C@@H]1O [Compound 719]
- Relative fluorescence reading (HEK293T cells): 1.69
- Final product mass (mRNA): 97 µg

SMILES: CO[C@@H]1[C@H](OP(=O)(O)OC[C@H]2O[C@@H](n3cnc4c(=O)[nH]c(N)nc43)[C@H](O)[C@@H]2O)[C@@H](COP(=O)(O)OP(=O)(O)CP(=O)(O)OC[C@H]2O[C@@H](n3c[n+](C)c4c(=O)[nH]c(N)nc43)[C@H](O)[C@@H]2CCF)O[C@H]1n1cnc2c(N)ncnc21 [Compound 103]
- Relative fluorescence reading (HEK293T cells): 1.45
- Final product mass (mRNA): 94 µg

SMILES: CO[C@@H]1[C@H](OP(=O)(O)OC[C@H]2O[C@@H](n3cnc4c(=O)[nH]c(N)nc43)[C@H](O)[C@@H]2O)[C@@H](COP(=O)(O)OP(=O)(O)OP(=O)(O)OC[C@H]2O[C@@H](n3c[n+](C)c4c(=O)[nH]c(N)nc43)[C@H](O)[C@@H]2NC(=O)c2ccccc2)O[C@H]1n1cnc2c(N)ncnc21 [Compound 297]
- Relative fluorescence reading (HEK293T cells): 1.79
- Final product mass (mRNA): 110 µg

SMILES: CO[C@@H]1[C@H](OP(=O)(O)OC[C@H]2O[C@@H](n3cnc4c(=O)[nH]c(N)nc43)[C@H](O)[C@@H]2O)[C@@H](COP(=O)(O)OP(=O)(O)OP(=O)(O)OC[C@H]2O[C@@H](n3c[n+](C)c4c(=O)[nH]c(N)nc43)[C@H](O)[C@@H]2N=[N+]=[N-])O[C@H]1n1cnc2c(N)ncnc21 [Compound 399]
- Relative fluorescence reading (HEK293T cells): 1.51
- Final product mass (mRNA): 117 µg

SMILES: CCC(=O)N[C@H]1[C@@H](O)[C@H](n2c[n+](C)c3c(=O)[nH]c(N)nc32)O[C@@H]1COP(=O)(O)OP(=O)(O)OP(=O)(O)OC[C@H]1O[C@@H](n2cnc3c(N)ncnc32)[C@H](OC)[C@@H]1OP(=O)(O)OC[C@H]1O[C@@H](n2cnc3c(=O)[nH]c(N)nc32)[C@H](O)[C@@H]1O [Compound 291]
- Relative fluorescence reading (HEK293T cells): 1.60
- Final product mass (mRNA): 106 µg

SMILES: C/C=C/C[C@H]1[C@@H](O)[C@H](n2c[n+](C)c3c(=O)[nH]c(N)nc32)O[C@@H]1COP(=O)(O)OP(=O)(O)OP(=O)(O)OC[C@H]1O[C@@H](n2cnc3c(N)ncnc32)[C@H](OC)[C@@H]1OP(=O)([O-])OC[C@H]1O[C@@H](n2cnc3c(=O)[nH]c(N)nc32)[C@H](O)[C@@H]1O [Compound 711]
- Relative fluorescence reading (HEK293T cells): 1.86
- Final product mass (mRNA): 106 µg

SMILES: C=CC[n+]1cn([C@@H]2O[C@H](COP(=O)(O)OP(=O)(O)OP(=O)(O)OC[C@H]3O[C@@H](n4cnc5c(N)ncnc54)[C@H](OC)[C@@H]3OP(=O)(O)OC[C@H]3O[C@@H](n4cnc5c(=O)[nH]c(N)nc54)[C@H](O)[C@@H]3O)[C@@H](CC)[C@H]2O)c2nc(N)[nH]c(=O)c21 [Compound 716]
- Relative fluorescence reading (HEK293T cells): 1.50
- Final product mass (mRNA): 103 µg

SMILES: CC[C@H]1[C@@H](O)[C@H](n2c[n+](C)c3c(=O)[nH]c(N)nc32)O[C@@H]1COP(=O)(O)OP(O)(=S)OP(=O)(O)OC[C@H]1O[C@@H](n2cnc3c(N)ncnc32)[C@H](OC)[C@@H]1OP(=O)([O-])OC[C@H]1O[C@@H](n2cnc3c(=O)[nH]c(N)nc32)[C@H](O)[C@@H]1O (stereo partly shown) [Compound 718]
- Relative fluorescence reading (HEK293T cells): 1.66
- Final product mass (mRNA): 106 µg

SMILES: CO[C@@H]1[C@H](OP(=O)(O)OC[C@H]2O[C@@H](n3cnc4c(=O)[nH]c(N)nc43)[C@H](O)[C@@H]2O)[C@@H](COP(=O)(O)OP(=O)(O)OP(=O)(O)OC[C@H]2O[C@@H](n3c[n+](C)c4c(=O)[nH]c(N)nc43)[C@H](O)[C@@H]2NC(=O)C(C)C)O[C@H]1n1cnc2c(N)ncnc21 [Compound 293]
- Relative fluorescence reading (HEK293T cells): 1.68
- Final product mass (mRNA): 103 µg

SMILES: CO[C@@H]1[C@H](OP(=O)(O)OC[C@H]2O[C@@H](n3cnc4c(=O)[nH]c(N)nc43)[C@H](O)[C@@H]2O)[C@@H](COP(=O)(O)OP(=O)(O)OP(=O)(O)OC[C@H]2O[C@@H](n3c[n+](C)c4c(=O)[nH]c(N)nc43)[C@H](O)[C@@H]2NC(=O)C(C)(C)C)O[C@H]1n1cnc2c(N)ncnc21 [Compound 722]
- Relative fluorescence reading (HEK293T cells): 1.74
- Final product mass (mRNA): 103 µg

SMILES: CCCCCCNC(=O)[C@H]1[C@@H](O)[C@H](n2c[n+](C)c3c(=O)[nH]c(N)nc32)O[C@@H]1COP(=O)(O)OP(=O)(O)OP(=O)(O)OC[C@H]1O[C@@H](n2cnc3c(N)ncnc32)[C@H](OC)[C@@H]1OP(=O)(O)OC[C@H]1O[C@@H](n2cnc3c(=O)[nH]c(N)nc32)[C@H](O)[C@@H]1O [Compound 205]
- Relative fluorescence reading (HEK293T cells): 1.52
- Final product mass (mRNA): 98 µg

SMILES: CO[C@@H]1[C@H](OP(=O)([O-])OC[C@H]2O[C@@H](n3cnc4c(=O)[nH]c(N)nc43)[C@H](O)[C@@H]2O)[C@@H](COP(=O)(O)OP(=O)(O)OP(=O)(O)OC[C@H]2O[C@@H](n3c[n+](C)c4c(=O)[nH]c(N)nc43)[C@H](O)[C@@H]2OC)O[C@H]1n1cnc2c(N)ncnc21 [Compound N-7413, reference compound]
- Relative fluorescence reading (HEK293T cells): 1.00
- Final product mass (mRNA): 114 µg
